Measurements: PubChem BioAssay (NCI)
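Test compounds were applied to cells in 96-well plates for 48 hours at 5 doses. GI50 is the concentration that inhibits growth by half. TGI is the concentration that stops growth completely.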

Tests used:
Test in all cases: NCI tumour cell line growth inhibition, 48 h
[1] = test system: CAKI-1 renal
[2] = test system: MDA-MB-435
[3] = test system: BT-549 breast
[4] = test system: TK-10 renal
[5] = test system: MDA-MB-231 breast
[6] = test system: MDA-N
[7] = test system: M19-MEL melanoma
[8] = test system: XF 498 CNS
[9] = test system: DMS 114 small cell lung
[10] = test system: DMS 273 small cell lung
[11] = test system: P388 leukemia
[12] = test system: SN12K1 renal
[13] = test system: DU-145 prostate
[14] = test system: T-47D breast

Structure (SMILES)	TGI [1] [µM]	TGI [2] [µM]	TGI [3] [µM]	TGI [4] [µM]	TGI [5] [µM]	TGI [7] [µM]	TGI [9] [µM]	TGI [10] [µM]	TGI [13] [µM]	further results
Nc1ccc(N=Nc2ccccc2)cc1	> 100	> 100	> 100	> 100	88					TGI [6]: > 100 µM
COc1ccc(O)cc1	> 100			> 100		> 100	> 100			TGI [8]: > 100 µM
NC1=NS(=O)(=O)Nc2nc(-c3ccc(Cl)cc3)c(-c3ccc(Cl)cc3)nc21	> 100			> 100		> 100	> 100	> 100		TGI [8]: > 100 µM
COc1ccc(/C(Cl)=C(\C=O)c2ccc(F)cc2)cc1OC	63.2			> 100		66.1	46.2	97.3		
NC1=NS(=O)(=O)Nc2nc(-c3ccc([N+](=O)[O-])o3)[nH]c21	35.7			33		32.4	34	38.7		
Nc1ccc2[nH]c3c(-c4ccccc4)nccc3c2c1						> 100	> 100	> 100		TGI [11]: 46.5 µM; TGI [12]: > 100 µM; TGI [8]: > 100 µM
O=C(NC(Cc1ccc(I)cc1)C(=O)O)c1ccc(Br)cc1 (stereo unspecified)	> 100					> 100	> 100	> 100		TGI [11]: > 100 µM; TGI [12]: > 100 µM; TGI [8]: > 100 µM
N=C(N)c1ccc(N=Nc2c(O)ccc3c2[nH]c2ccccc23)cc1	> 100	> 39.6	99.4	> 95.3					> 100	TGI [6]: 50.6 µM
COC(=O)C1=C(C(=O)OC)SC2(S1)C1=C(CCCC1)SC(C(=O)OC)=C2C(=O)OC	13.5	10	25.1	24.7	29.3				3.54	TGI [14]: 13.5 µM; TGI [6]: 15.2 µM
C[C@]12CCc3nc(Nc4ccccc4)sc3C1=CC[C@@H]1[C@@H]2CC[C@]2(C)/C(=N/NC(N)=S)CC[C@@H]12		> 100	> 100	> 100	> 100				> 100	GI50 [2]: 3.05 µM; GI50 [14]: 2850 nM; TGI [14]: > 100 µM; GI50 [3]: 3.26 µM; GI50 [4]: 46.4 µM; GI50 [5]: 4.43 µM; GI50 [13]: 2960 nM
CCOC(=O)/C1=C(\C)N(c2ccc(C)cc2)C(=O)c2ccccc2C(=O)c2c(OC(C)=O)ccc(OC(C)=O)c21	38.5	41.5	90.2	44.4	83.9				> 100	TGI [14]: 76.5 µM
COc1cc(Nc2c3ccccc3nc3ccccc23)ccc1NS(C)(=O)=O						22.3				
Cc1ccc(S(=O)(=O)OCC(=O)O)cc1	> 100		> 100	> 100	> 100				> 100	TGI [14]: > 100 µM; TGI [6]: > 100 µM
NC1=NS(=O)(=O)Nc2nc(-c3ccc([N+](=O)[O-])cc3)[nH]c21	> 100			> 100		> 100	> 100	> 100		
